Source: patent US20240358846A1, “Nanoparticles and Peptides for the Delivery of Cargos to Muscle Cells” (4BASEBIO, S.L.U., priority 2021, published 2024)

Key:
C2C12 cells [1] = assay: GFP expression in C2C12 cells transfected with pDNA:lipid:peptide nanoparticles (flow cytometry, microscopy); assay type: cell-based, mouse; conditions: 48 h; for cells expressing GFP (GFP expression level, transfection efficiency): pDNA:lipid:peptide nanoparticles, different targeting sequences, FIG. 2; for cells expressing GFP (GFP expression level, transfection efficiency) / GFP transfection efficiency: DD 2:1 with 20% cholesterol; for GFP transfection efficiency: pDNA:lipid:peptide, MD2 in different conformations, FIG. 4
Experimental: C2C12 cells, an immortalised mouse myoblast line, were cultured in Dulbecco's Modified Eagle's Medium (DMEM, Gibco) containing 10% fetal bovine serum (FBS, Gibco) and 1% pen/strep (Gibco).
Transfections in C2C12 cells were performed with a range of peptide:liposome:nucleic acid cargo ratios. Transfections were performed in a 96-well plate at a density of 8,000 cells per well seeded 24 h previously. Charge and mass ratio of components in the transfection complex varied; DNA was maintained at a constant mass of 300 ng per well, while lipid component was altered. In one case, the molar ratio of the cationic lipid C18 to the phospholipid DOPE was kept at 1:1 (DD). In another case, the molar ratio of the cationic lipid C18 to the phospholipid DOPE was kept at 2:1 (DD 2:1), while cholesterol was added at a molar percentage of 10 or 20% of the total lipid content. The mass ratio of linear DNA:liposome:peptide was maintained at 1:3:3, while the muscle-cell binding peptides were in some cases altered.
(§1) Transfection complexes were formed via electrostatic interaction by vigorous pipetting, before diluting in a final volume of 200 μl per well, with a DNA concentration of 1.5 ng/μl. All dilutions were performed with OptiMEM reduced serum media. Controls included cells with no transfection complexes added (OptiMEM only).
Transfection complexes were incubated for 30 min at RT before adding to cells. All conditions were performed in triplicate. Cells were incubated at 37° C. for 4 hours, before replacing media with growth media. 48 h post-transfection, the cells were rinsed in PBS, before incubation in 0.05% Trypsin EDTA (Gibco) to detach the cells. Cells were then re-suspended in PBS for analysis by flow cytometry.

C2C12 cells [2] = assay: GFP expression in C2C12 cells transfected with mRNA:lipid:peptide nanoparticles; assay type: cell-based, mouse; conditions: mRNA:lipid:peptide 1:5:2.5, DOTMA/DOPE 2:1 with 10% cholesterol, 500 ng/well, 4 h, FIG. 16
Experimental: Shown in FIG. 16 is GFP expression in C2C12 cells transfected with mRNA derived from linearised plasmid encapsulated in lipid-peptide nanoparticles.
(§2) Nanoparticles were formulated manually by pipetting following a mass ratios of 1:5:2.5 (mRNA:lipid:peptide). Firstly, the components mRNA, lipid and peptide were suspended in Ultra pure water in volumes of 60 ul, 60 ul and 80 ul, respectively. Components were mixed following the order-lipid to peptide, mRNA to lipid+peptide mix. Nanoparticles were allowed to incubate for 30 minutes at room temperature. All samples were diluted in serum-free media before transferring them onto cells. C2C12 cells were transfected with 500 ng/well of mRNA nanoparticles. The microplate was centrifuged at 12000 rpm for 5 minutes and incubated at 37 C for 4 hours. After 4 hours, cells were trypsinised and prepared for FAQs.

[3] = Size and PDI of miRNA-lipid-peptide complexes, hand-mixing vs microfluidics (DLS); assay type: physicochemical; conditions: FIG. 23; for size of complexes: C18/DOPE 2:1 with 10% cholesterol
Source text: Shown in FIG. 23 is size and polydispersity index (PDI) of miDNA-lipid-peptide complexes formulated through two different methods: hand-mixing—where complexes are formed by vigorous pipetting using a micropipette; or through a microfluidics platform. The lipid components comprised of C18/DOPE at a molar ratio of 2:1 with 10% cholesterol. The final formulation was following a mass ratio of 1:5 closed linear DNA:liposomes with N/P ratio of 6 driven by the peptide C1L-N-16-K16GAAPWHLSSQYSRT (SEQ ID NO: 49).
The hand-mixed complexes were formed by firstly suspending each of the components in ultra pure water, with the following mixing order-liposomes to peptide, closed linear DNA to liposomes+peptide complexes. Nanoparticles were allowed to incubate for 30 minutes at room temperature prior to a further dilution in water required for biophysical charaterisation by a DLS system (Zetasizer Ultra-Malvern).
For complexes formed through a microfluidics device (Nanoassemblr Ignite-Precision Nanosystems), lipid components were suspended in 99% pure ethanol at identical ratios to hand-mixed particles. Lipid components in ethanol were loaded onto the instrument along with miRNA and peptide C1L, both suspended in water. A flow rate ratio (FRR) of 1:3 of miRNA to lipid was mixed together at a total flow rate (TFR) of 12 mL/min prior to the addition of the peptide (FRR of 1:1, TFR 12 mL/min). The complexes formulated using the Nanoassemblr we then dialysed for 4 h using a Slide-a-Lyzer dialysis cassette (ThermoFisher) to remove residual ethanol.

H9C2 cells = assay: GFP expression in H9C2 cells transfected with nucleic acid-lipid-peptide nanoparticles (flow cytometry); assay type: cell-based, rat; conditions: 300 ng/well; for cells GFP positive (transfection efficiency): 48 h post-transfection; for GFP positive cells (transfection efficiency): mRNA in lipid-peptide nanoparticles, 4 h post transfection, FIG. 13
Experimental: H9C2 cells, an immortalised cell line derived from embryonic rate heart tissue were cultured in Dulbecco's Modified Eagle's Medium (DMEM, Gibco) containing 10% fetal bovine serum (FBS, Gibco) and 1% pen/strep (Gibco).
Transfections in H9C2 cells were performed with a range of peptide:liposome:nucleic acid cargo ratios. Transfections were performed in a 96-well plate at a density of 8,000 cells per well seeded 24 h previously. Closed linear DNA/mRNA was maintained at a constant mass of 300 ng per well, while peptide component was altered. The molar ratio of the cationic lipid C18 to the phospholipid DOPE was kept at 2:1 (DD 2:1), while cholesterol was added at a molar percentage of 10% of the total lipid content. The mass ratio of closed linear DNA/mRNA:liposome:peptide was maintained at 1:5:2.52.
as §1, with “ul” for “μl”, “ng/ul.” for “ng/μl.”, “only), complexes targeting a different cell, or complexes with no targeting sequence component.” for “only).”
Transfection complexes were incubated for 30 min at RT before adding to cells. All conditions were performed in triplicate. Cells were incubated at 37° C. for 4 hours, before replacing media with growth media.
In the case of mRNA, 4 h post-transfection, the cells were rinsed in PBS, before incubation in 0.05% Trypsin EDTA (Gibco) to detach the cells. Cells were then resuspended in PBS for analysis by flow cytometry. In the case of closed linear DNA, 48 h post-transfection, the cells were rinsed in PBS, before incubation in 0.05% Trypsin EDTA (Gibco) to detach the cells. Cells were then resuspended in PBS for analysis by flow cytometry.

HEK293 cells [4] = assay: GFP expression in HEK293 cells transfected with plasmid DNA-peptide complexes or DNA-lipid-peptide nanoparticles; assay type: cell-based; conditions: particles formed using DNA and peptide only, 48 h, FIG. 5
Experimental: GFP expression was imaged 48 h post transfection. n=3 in all experiments, error bars=S.D.
The high expression in C2C12 compared with HEK293 cells is particularly impressive owing to the high transfection efficiency achievable in HEK293 cells.

[5] = Biophysical characterisation of DNA-lipid-peptide nanoparticle (DLS, ELS, MADLS); assay type: physicochemical
Experimental: The size in nm by Dynamic Light Scattering (DLS), zeta potential in mV by Electrophoretic Light Scattering (ELS), and concentration of particles per ml by Multi-Angle Dynamic Light Scattering (MADLS) of the hpDNA-lipid-peptide nanoparticles was determined using the Zetasizer Ultra (Malvern). Complexes were prepared as before, except formulated in nuclease-free water rather than Opti-MEM. Samples containing 0.7 μg plasmid were diluted in 1 ml for analysis.

[6] = Size and polydispersity index of closed linear DNA-lipid-peptide nanoparticles by DLS (FIG. 15); assay type: physicochemical; conditions: C18/CHOL/DOPE (58/10/32)
Experimental: Dynamic Light Scattering (DLS) measurements were conducted using Zetasizer Ultra (Malvern Panalytical). Each bar represents average value of three measurements (n=3). Complexes were prepared as before, except formulated in nuclease-free water rather than Opti-MEM. Samples containing 0.7 μg closed linear DNA were diluted in 1 ml for analysis. Particles ranged from 37 nm (MD2L) to 57 nm (MD2CC), with PDI values ranging from 0.12 to 0.28. Liposomes encapsulating closed linear DNA with no targeting ligand were used as a control, with a larger size of 70 nm and PDI of 0.13.

HEK293 cells [7] = assay: In-vitro transfection efficiency in HEK293 cells of closed linear DNA nanoparticles stored at +4° C. (luciferase assay); assay type: cell-based; conditions: 300 ng closed linear DNA nanoparticles stored up to 40 weeks at +4° C., tested every 5 weeks, FIG. 22B
Experimental: Nanoparticles were transfected in HEK293 cells at 5 week intervals. GFP expression was measured 48 h post transfection. n=3 in all experiments.
Shown in FIG. 22B is relative luminescence units per microgram of protein (RLU/mg of protein) of HEK293 cells transfected with closed linear DNA nanoparticles stored for 40 weeks at +4° C. […] Cells were transfected with 300 ng of closed linear DNA nanoparticles every 5 weeks.

C2C12 cells [8] = assay: GFP expression in C2C12 cells transfected with closed linear DNA:lipid:peptide nanoparticles; assay type: cell-based, mouse; conditions: DOTMA/DOPE 2:1 with 10% cholesterol, 300 ng/well, 48 h, FIG. 20
Experimental: GFP expression was measured 48 h post transfection. n=3 in all experiments, error bars=S.D. Nanoparticles containing no peptide were used as a control. […] Nanoparticles containing no peptide in their formulation lead to a transfection efficiency of 12% indicating the lowest transfection efficiency in treated cells.
as §2, with “1:3:2.1.6 (closed linear DNA:lipid:peptide).” for “1:5:2.5 (mRNA:lipid:peptide).”, “closed linear DNA,” for “components mRNA,”, “closed linear DNA” for “mRNA”, “300” for “500”, “closed linear DNA.” for “mRNA nanoparticles.”, “Flow Cytometry analysis.” for “FAQs.”

[9] = Size and PDI of mRNA:lipid:peptide nanoparticles (FIG. 19); assay type: physicochemical; conditions: DOTMA/DOPE 2:1 with 10% cholesterol
Source text: Table presented in FIG. 19 presents size (nm) and polydispersity index (PDI) values for the mRNA:lipid:peptide nanoparticles. Sizes of fully formed nanoparticles range from 31 nm for MD2, to 37 nm for MD3 while nanoparticles formulated without a peptide are 61 nm. PDI value is low across all samples which translates into low polydispersity of the nanoparticle population.

[10] = plasmid DNA-lipid-peptide nanoparticles, FIG. 10
[11] = closed linear DNA-lipid-peptide nanoparticles, FIG. 11

ASSLNIA [MD1]
cells expressing GFP (GFP expression level, transfection efficiency) (C2C12 cells [1]; C2C12): 73% | cells expressing GFP (transfection efficiency) (C2C12 cells [2]): 73%

KKKKKKKKKKKKKKKKGAAPWHLSSQYSRT [C1L-N-16]
size of complexes ([3]; hand-mixed): 60 nm | size of complexes ([3]; microfluidics): 40 nm | PDI ([3]; hand-mixed): 0.23 | PDI ([3]; microfluidics): 0.16

KKKKKKKKKKKKKKKKGAASSLNIA [MD1L]
cells GFP positive (transfection efficiency) (H9C2 cells; [10]): 20%

KKKKKKKKKKKKKKKKGACRRQPPRSISSHPC [MD2C]
GFP transfection efficiency (C2C12 cells [1]; C2C12): 30.08% | GFP expression visualised by microscopy (C2C12 cells [1]; C2C12, particles formed using DNA and peptide only, FIG. 5): some GFP expression | GFP expression, C2C12 compared to HEK293 cells (specificity) (C2C12 cells [1]; fully formed nanoparticle with lipid DD with 10% cholesterol, FIG. 5): much higher in C2C12 cells as compared to HEK293 cells | GFP expression visualised by microscopy (HEK293 cells [4]): No GFP expression | size of the particle (DLS) ([5]; DNA-lipid-peptide nanoparticle, C18 (DOTMA) DOPE 10% cholesterol, FIG. 6A): 89.4 nm | zeta potential (ELS) ([5]; DNA-lipid-peptide nanoparticle, C18 (DOTMA) DOPE 10% cholesterol, FIG. 6B): 24.8 mV | particle titre (MADLS) ([5]; accounting for the 1 in 100 dilution, FIG. 6E, F): 10 E12 particles per ml | cells GFP positive (transfection efficiency) (H9C2 cells; [11]): 6% | cells GFP positive (transfection efficiency) (H9C2 cells; [10]): 26%

KKKKKKKKKKKKKKKKGARRQPPRSISSHP [MD2L]
GFP transfection efficiency (C2C12 cells [1]; C2C12): 8.24% | GFP positive cells (transfection efficiency) (H9C2 cells): 33% | cells GFP positive (transfection efficiency) (H9C2 cells; [10]): 27% | size (DLS) [6]: 37 nm | transfection efficiency after storage (luminescence signal, luciferase assay) (HEK293 cells [7]): sustained luminescence signal across all time points

KKKKKKKKKKKKKKKKGAWLSEAGPVVTVRALRGTGSW [C2L-N-16]
GFP positive cells (transfection efficiency) (H9C2 cells): 26%

KKKKKKKKKKKKKKKKKKKKKKKKKKKKKKGACRRQPPRSISSHPC [MD2C-K30, targeting peptide named MD2C-K30]
cells GFP positive (transfection efficiency) (H9C2 cells; [11]): 5%

KKKKKKKKKKKKKKKKRVRRGACASSLNIAC [MD1CC]
cells expressing GFP (transfection efficiency) (C2C12 cells [8]): 29%

KKKKKKKKKKKKKKKKRVRRGACRRQPPRSISSHPC [MD2CC]
GFP transfection efficiency (C2C12 cells [1]; C2C12): 50.06% | size (DLS) [6]: 57 nm

KKKKKKKKKKKKKKKKRVRRGACSKTFNTHPQSTPC [MD3CC]
cells expressing GFP (transfection efficiency) (C2C12 cells [8]): 25%

RRQPPRSISSHP [MD2]
cells expressing GFP (GFP expression level, transfection efficiency) (C2C12 cells [1]; C2C12): 50.1% | cells expressing GFP (transfection efficiency) (C2C12 cells [2]): 59% | size [9]: 31 nm

SKTFNTHPQSTP [MD3]
cells expressing GFP (GFP expression level, transfection efficiency) (C2C12 cells [1]; C2C12): 22.68% | cells expressing GFP (transfection efficiency) (C2C12 cells [2]): 72% | size [9]: 37 nm
